Laboratory results: US6770597B2, “Benzohydrazide derivatives as herbicides and desiccant compositions containing them” (Ishihara Sangyo Kaisha, Ltd., priority 2002, dated 2004)

Legend:
Assay type in all cases: in vivo
[1] = tested on: upland rice (Oryza sp., var.Cocodrie, RICE); experiment: Greenhouse herbicide screen, post-emerge application, crop damage rating; details: POST emergent, 14 days after application, scale 0-100
Source text: (§1) A standard greenhouse herbicide activity screening system was used to evaluate the herbicidal efficacy and crop safety of these test compounds. Seven broadleaf weed species including redroot pigweed (Amaranthus retrofiexus, AMARE), velvetleaf (Abutilon theophrasti, ABUTH), sicklepod (Cassia obtusifolia, CASOB), ivyleaf morningglory (Ipomoea hederacea, IPOHE), lambsquarters (Chenopodium album, CHEAL), common ragweed (Ambrosia artemisiifolia L., AMBEL), and cocklebur (Xanthium strumarium, XANST) were used as test species. Four grass weed species including green foxtail (Setaria viridis, SETVI), barnyardgrass (Echinochloa crus-galli, ECHCG), johnsongrass (Sorghum halepense, SORHA), and large crabgrass (Digitaria sanguinalis, DIGSA) were also used. In addition, four crop species, field corn (Zea mays L., var. Dekalb 535, CORN), soybean (Glycine max L., var. Pella 86, SOY), upland rice (Oryza sp., var.Cocodrie, RICE) and wheat (Triticum aestivum L.) were included.
(§2) All plants were grown in 10 cm square plastic pots which were filled with a sandy loam soil mix. For pre-emerge tests, seeds were planted one day prior to application of the test compounds. For post-emerge tests, seeds were planted 8-21 days prior to the test to allow emergence and good foliage development prior to application of the test substances. At the time of the post-emerge application, plants of all species were usually at the 2-3 leaf stage of development.
(§3) All test compounds were dissolved in acetone and applied to the test units in a volume of 187 l/ha. Test materials were applied at rates ranging from 15 g ai/ha to 1000 g ai/ha using a track sprayer equipped with a TJ8001E even flow flat fan spray nozzle. Plants were arranged on a shelf so that the top of the canopy (post-emerge) or top of the soil surface (pre-emerge) was 40-45 cm below the nozzle. Pressurized air was used to force the test solution through the nozzle as it was mechanically advanced (via electrically driven chain drive) over the top of all test plants/pots. This application simulates a typical commercial field herbicide application.
(§4) Pre-emergence tests were top watered immediately after treatment to incorporate the test materials, then routinely top-watered for normal growth. Post-emerge test units were always bottom-watered.
(§5) At 14 days after application of the test materials, phytotoxicity ratings were recorded. A rating scale of 0-100 was used as previously described in Research Methods in Weed Science, 2nd edition, B. Truelove, Ed., Southern Weed Science Society, Auburn University, Auburn, Ala., 1977. Briefly, “0” corresponds to no damage and “100” corresponds to complete death of all plants in the test unit. This scale was used both to determine efficacy against weed species and damage to crop species. Herbicide activity data for various compounds of this invention, which are shown by compound No. in Tables 1-12, are shown in Tables 13 and 14.

[2] = tested on: field corn (Zea mays L., var. Dekalb 535, CORN); experiment: as above; details: POST emergent, 14 days after application, scale 0-100
Source text: as §1, §2, §3, §4, §5

[3] = tested on: sicklepod (Cassia obtusifolia, CASOB); experiment: Greenhouse herbicide screen, pre-emerge application, phytotoxicity rating; details: PRE emergent, 14 days after application, rating scale 0-100
Source text: as §1, §2, §3, §4, §5

[4] = tested on: large crabgrass (Digitaria sanguinalis, DIGSA); experiment: as above; details: PRE emergent, 14 days after application, rating scale 0-100
Source text: as §1, §2, §3, §4, §5

[5] = tested on: ivyleaf morningglory (Ipomoea hederacea, IPOHE); experiment: as above; details: PRE emergent, 14 days after application, rating scale 0-100
Source text: as §1, §2, §3, §4, §5

[6] = tested on: velvetleaf (Abutilon theophrasti, ABUTH); experiment: as above; details: PRE emergent, 14 days after application, rating scale 0-100
Source text: as §1, §2, §3, §4, §5

[7] = tested on: green foxtail (Setaria viridis, SETVI); experiment: as above; details: PRE emergent, 14 days after application, rating scale 0-100
Source text: as §1, §2, §3, §4, §5

[8] = tested on: redroot pigweed (Amaranthus retrofiexus, AMARE); experiment: as above; details: PRE emergent, 14 days after application, rating scale 0-100
Source text: as §1, §2, §3, §4, §5

[9] = tested on: cocklebur (Xanthium strumarium, XANST); experiment: as above; details: PRE emergent, 14 days after application, rating scale 0-100
Source text: as §1, §2, §3, §4, §5

[10] = tested on: barnyardgrass (Echinochloa crus-galli, ECHCG); experiment: as above; details: PRE emergent, 14 days after application, rating scale 0-100
Source text: as §1, §2, §3, §4, §5

[11] = tested on: common ragweed (Ambrosia artemisiifolia L., AMBEL); experiment: as above; details: PRE emergent, 14 days after application, rating scale 0-100
Source text: as §1, §2, §3, §4, §5

[12] = tested on: johnsongrass (Sorghum halepense, SORHA); experiment: as above; details: PRE emergent, 14 days after application, rating scale 0-100
Source text: as §1, §2, §3, §4, §5

[13] = tested on: lambsquarters (Chenopodium album, CHEAL); experiment: as above; details: PRE emergent, 14 days after application, rating scale 0-100
Source text: as §1, §2, §3, §4, §5

[14] = tested on: upland rice (Oryza sp., var.Cocodrie, RICE); experiment: Greenhouse herbicide screen, pre-emerge application, crop damage rating; details: PRE emergent, 14 days after application, rating scale 0-100
Source text: as §1, §2, §3, §4, §5

[15] = tested on: field corn (Zea mays L., var. Dekalb 535, CORN); experiment: as above; details: PRE emergent, 14 days after application, rating scale 0-100
Source text: as §1, §2, §3, §4, §5

[16] = tested on: sicklepod (Cassia obtusifolia, CASOB); experiment: Greenhouse herbicide screen, post-emerge application, phytotoxicity rating; details: POST emergent, 14 days after application, scale 0-100
Source text: as §1, §2, §3, §4, §5

[17] = tested on: large crabgrass (Digitaria sanguinalis, DIGSA); experiment: as above; details: POST emergent, 14 days after application, scale 0-100
Source text: as §1, §2, §3, §4, §5

[18] = tested on: ivyleaf morningglory (Ipomoea hederacea, IPOHE); experiment: as above; details: POST emergent, 14 days after application, scale 0-100
Source text: as §1, §2, §3, §4, §5

[19] = tested on: velvetleaf (Abutilon theophrasti, ABUTH); experiment: as above; details: POST emergent, 14 days after application, scale 0-100
Source text: as §1, §2, §3, §4, §5

[20] = tested on: green foxtail (Setaria viridis, SETVI); experiment: as above; details: POST emergent, 14 days after application, scale 0-100
Source text: as §1, §2, §3, §4, §5

[21] = tested on: redroot pigweed (Amaranthus retrofiexus, AMARE); experiment: as above; details: POST emergent, 14 days after application
Source text: as §1, §2, §3, §4, §5

[22] = tested on: cocklebur (Xanthium strumarium, XANST); experiment: as above; details: POST emergent, 14 days after application, scale 0-100
Source text: as §1, §2, §3, §4, §5

[23] = tested on: barnyardgrass (Echinochloa crus-galli, ECHCG); experiment: as above; details: POST emergent, 14 days after application, scale 0-100
Source text: as §1, §2, §3, §4, §5

[24] = tested on: common ragweed (Ambrosia artemisiifolia L., AMBEL); experiment: as above; details: POST emergent, 14 days after application, scale 0-100
Source text: as §1, §2, §3, §4, §5

[25] = tested on: johnsongrass (Sorghum halepense, SORHA); experiment: as above; details: POST emergent, 14 days after application, scale 0-100
Source text: as §1, §2, §3, §4, §5

[26] = tested on: lambsquarters (Chenopodium album, CHEAL); experiment: as above; details: POST emergent, 14 days after application, scale 0-100
Source text: as §1, §2, §3, §4, §5

Compound: CC(=O)OC(=NN(C)C)c1cc(-n2c(=O)cc(C(F)(F)F)n(C)c2=O)ccc1Cl [Compound 4-4]
- crop damage rating RICE ([1]; 63 g ai/ha): 10
- crop damage rating RICE ([1]; 250 g ai/ha): 55
- crop damage rating CORN ([2]; 63 g ai/ha): 25
- crop damage rating CORN ([2]; 250 g ai/ha): 90
- phytotoxicity rating CASOB ([3]; 63 g ai/ha): 65
- phytotoxicity rating CASOB ([3]; 250 g ai/ha): 98
- phytotoxicity rating DIGSA ([4]; 63 g ai/ha): 98
- phytotoxicity rating DIGSA ([4]; 250 g ai/ha): 100
- phytotoxicity rating IPOHE ([5]; 63 g ai/ha): 100
- phytotoxicity rating IPOHE ([5]; 250 g ai/ha): 100
- phytotoxicity rating ABUTH ([6]; 63 g ai/ha): 100
- phytotoxicity rating ABUTH ([6]; 250 g ai/ha): 100
- phytotoxicity rating SETVI ([7]; 63 g ai/ha): 50
- phytotoxicity rating SETVI ([7]; 250 g ai/ha): 90
- phytotoxicity rating AMARE ([8]; 63 g ai/ha): 100
- phytotoxicity rating AMARE ([8]; 250 g ai/ha): 100
- phytotoxicity rating XANST ([9]; 63 g ai/ha): 0
- phytotoxicity rating XANST ([9]; 250 g ai/ha): 60
- phytotoxicity rating ECHCG ([10]; 63 g ai/ha): 30
- phytotoxicity rating ECHCG ([10]; 250 g ai/ha): 90
- phytotoxicity rating AMBEL ([11]; 63 g ai/ha): 75
- phytotoxicity rating AMBEL ([11]; 250 g ai/ha): 100
- phytotoxicity rating SORHA ([12]; 63 g ai/ha): 60
- phytotoxicity rating SORHA ([12]; 250 g ai/ha): 90
- phytotoxicity rating CHEAL ([13]; 63 g ai/ha): 100
- phytotoxicity rating CHEAL ([13]; 250 g ai/ha): 100
- crop damage rating RICE ([14]; 63 g ai/ha): 10
- crop damage rating RICE ([14]; 250 g ai/ha): 55
- crop damage rating CORN ([15]; 63 g ai/ha): 25
- crop damage rating CORN ([15]; 250 g ai/ha): 90
- phytotoxicity rating CASOB ([16]; 63 g ai/ha): 65
- phytotoxicity rating CASOB ([16]; 250 g ai/ha): 98
- phytotoxicity rating DIGSA ([17]; 63 g ai/ha): 98
- phytotoxicity rating DIGSA ([17]; 250 g ai/ha): 100
- phytotoxicity rating IPOHE ([18]; 63 g ai/ha): 100
- phytotoxicity rating IPOHE ([18]; 250 g ai/ha): 100
- phytotoxicity rating ABUTH ([19]; 63 g ai/ha): 100
- phytotoxicity rating ABUTH ([19]; 250 g ai/ha): 100
- phytotoxicity rating SETVI ([20]; 63 g ai/ha): 50
- phytotoxicity rating SETVI ([20]; 250 g ai/ha): 90
- phytotoxicity rating AMARE ([21]; 63 g ai/ha, scale 0-100 (0 no damage, 100 complete death)): 100
- phytotoxicity rating AMARE ([21]; 250 g ai/ha, scale 0-100): 100
- phytotoxicity rating XANST ([22]; 63 g ai/ha): 0
- phytotoxicity rating XANST ([22]; 250 g ai/ha): 60
- phytotoxicity rating ECHCO ([23]; 63 g ai/ha): 30
- phytotoxicity rating ECHCO ([23]; 250 g ai/ha): 90
- phytotoxicity rating AMBEL ([24]; 63 g ai/ha): 75
- phytotoxicity rating AMBEL ([24]; 250 g ai/ha): 100
- phytotoxicity rating SORHA ([25]; 63 g ai/ha): 60
- phytotoxicity rating SORHA ([25]; 250 g ai/ha): 90
- phytotoxicity rating CHEAL ([26]; 63 g ai/ha): 100
- phytotoxicity rating CHEAL ([26]; 250 g ai/ha): 100
